Measured values taken from PubChem BioAssay AID330 (DTP/NCI, 2004).
Several values for one entry are separate records, joined by “and”; a condition that tells them apart may be missing. Equal values may be shown once. Inconclusive results and toxic doses are left out. How the source made its calls: active means survival T/C of 150% or more; inactive means T/C below 125% in these data.

Tested on: P388 leukemia ip, CD2F1 mice, survival T/C
Assay: NCI In Vivo Anticancer Drug Screen. Data for tumor model P388 Leukemia (intraperitoneal) in CD2F1 (CDF1) mice
Conditions: endpoint: median survival time, higher = longer survival
How it was run: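 Mice carrying the transplanted tumor received test compound or vehicle. Survival was recorded in each group, and the value is the treated-group measurement divided by that of the vehicle-treated control group.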

[1] = dose: 100.0 mg/kg/injection, schedule: Q04DX003 (ip), vehicle: saline with Tween-80
[2] = dose: 200.0 mg/kg/injection, schedule: Q04DX003 (ip), vehicle: saline with Tween-80
[3] = dose: 400.0 mg/kg/injection, schedule: Q04DX003 (ip), vehicle: saline with Tween-80
[4] = dose: 12.5 mg/kg/injection, schedule: Q01DX009 (ip), vehicle: saline with Tween-80
[5] = dose: 25.0 mg/kg/injection, schedule: Q01DX009 (ip), vehicle: saline with Tween-80
[6] = dose: 50.0 mg/kg/injection, schedule: Q01DX009 (ip), vehicle: saline with Tween-80
[7] = dose: 50.0 mg/kg/injection, schedule: Q01DX009 (ip), vehicle: saline
[8] = dose: 100.0 mg/kg/injection, schedule: Q01DX009 (ip), vehicle: saline
[9] = dose: 60.0 mg/kg/injection, schedule: Q01DX005 (ip), vehicle: saline with Tween-80
[10] = dose: 120.0 mg/kg/injection, schedule: Q01DX005 (ip), vehicle: saline with Tween-80
[11] = dose: 240.0 mg/kg/injection, schedule: Q01DX005 (ip), vehicle: saline with Tween-80
[12] = dose: 100.0 mg/kg/injection, schedule: Q01DX009 (ip), vehicle: saline with Tween-80
[13] = dose: 25.0 mg/kg/injection, schedule: Q01DX005 (ip), vehicle: saline with Tween-80
[14] = dose: 50.0 mg/kg/injection, schedule: Q01DX005 (ip), vehicle: saline with Tween-80
[15] = dose: 100.0 mg/kg/injection, schedule: Q01DX005 (ip), vehicle: saline with Tween-80

Measured: T/C

COc1cccc(N2C(=O)CSC2=S)c1
inactive: [1] 95 % of control | [2] 100 % of control | [3] 90 % of control

OC(c1cc2c(Cl)cc(Cl)cc2c2cc(C(F)(F)F)ccc12)C1CCCCN1 (configuration not stated)
inactive: dose: 6.25 mg/kg/injection, schedule: Q01DX009 (ip), vehicle: saline with Tween-80 101 % of control | [4] 100 % of control | [5] 100 % of control

COc1cc2ccnc(C3(O)CCN(C)CC3)c2cc1OC
inactive: dose: 6.25 mg/kg/injection, schedule: Q01DX009 (ip), vehicle: Klucel (hydroxypropylcellulose) (HPC) 94 % of control | dose: 12.5 mg/kg/injection, schedule: Q01DX009 (ip), vehicle: Klucel (hydroxypropylcellulose) (HPC) 98 % of control | dose: 25.0 mg/kg/injection, schedule: Q01DX009 (ip), vehicle: Klucel (hydroxypropylcellulose) (HPC) 93 % of control | dose: 50.0 mg/kg/injection, schedule: Q01DX001 (ip), vehicle: Klucel (hydroxypropylcellulose) (HPC) 102 % of control | dose: 100.0 mg/kg/injection, schedule: Q01DX001 (ip), vehicle: Klucel (hydroxypropylcellulose) (HPC) 105 % of control | dose: 200.0 mg/kg/injection, schedule: Q01DX001 (ip), vehicle: Klucel (hydroxypropylcellulose) (HPC) 97 % of control

CC(=O)O[C@@H]1C[C@H]2C(C)(C)C(=O)C=C[C@]2(C)[C@H]2CC[C@]3(C)C(=CC(=O)O[C@H]3c3ccoc3)[C@@]21C
inactive: dose: 2.5 mg/kg/injection, schedule: Q01DX009 (ip), vehicle: Klucel (hydroxypropylcellulose) (HPC) 103 % of control | dose: 5.0 mg/kg/injection, schedule: Q01DX009 (ip), vehicle: Klucel (hydroxypropylcellulose) (HPC) 100 % of control | dose: 10.0 mg/kg/injection, schedule: Q01DX009 (ip), vehicle: Klucel (hydroxypropylcellulose) (HPC) 103 % of control and 97 % of control | dose: 20.0 mg/kg/injection, schedule: Q01DX009 (ip), vehicle: Klucel (hydroxypropylcellulose) (HPC) 95 % of control | dose: 40.0 mg/kg/injection, schedule: Q01DX009 (ip), vehicle: Klucel (hydroxypropylcellulose) (HPC) 103 % of control

FC(F)(F)c1ccc(-c2ccc(OCCN3CCCC3)cc2)cc1
inactive: [4] 86 % of control | [5] 86 % of control | [6] 86 % of control | dose: 50.0 mg/kg/injection, schedule: Q04DX003 (ip), vehicle: saline sonified 87 % of control

NNc1cc2c(nn1)CCN(C(=O)c1ccccc1)C2
inactive: [7] 98 % of control | [8] 108 % of control

NC1=NN(Cc2csc(-c3ccccc3)n2)C(=O)C1
inactive: [9] 103 % of control | [10] 95 % of control | [11] 103 % of control

Cc1ccc(OC(=O)c2ccc3ccccc3n2)cc1
inactive: dose: 100.0 mg/kg/injection, schedule: Q04DX002 (ip), vehicle: saline with Tween-80 101 % of control | dose: 200.0 mg/kg/injection, schedule: Q04DX002 (ip), vehicle: saline with Tween-80 94 % of control | dose: 400.0 mg/kg/injection, schedule: Q04DX002 (ip), vehicle: saline with Tween-80 94 % of control

CCOC(=O)/C=C(/C)Sc1cc(O)ccc1O
inactive: [6] 102 % of control | [12] 111 % of control | dose: 200.0 mg/kg/injection, schedule: Q01DX009 (ip), vehicle: saline with Tween-80 109 % of control

CC(=O)C1=C(C)O/C(=C/c2ccc(Cl)cc2)C1=O
inactive: [13] 118 % of control | [14] 118 % of control and 120 % of control | [15] 119 % of control and 124 % of control

C[CH](C)[Ge]([CH3])([CH](C)C)[CH](C)C
inactive: [7] 100 % of control | [8] 93 % of control | dose: 200.0 mg/kg/injection, schedule: Q01DX009 (ip), vehicle: saline 110 % of control

COCC(=O)C(C(C)=O)C(c1ccc2c(c1)OCO2)C(C(C)=O)C(=O)COC (configuration not stated)
inactive: [1] 90 % of control | [2] 90 % of control | [3] 95 % of control

OCC(O)C(O)C(O)C(/C=N\Nc1ccccc1)=N/Nc1ccccc1 (configuration not stated)
inactive: dose: 100.0 mg/kg/injection, schedule: Q04DX002 (ip), vehicle: saline 100 % of control | dose: 200.0 mg/kg/injection, schedule: Q04DX002 (ip), vehicle: saline 97 % of control | dose: 400.0 mg/kg/injection, schedule: Q04DX002 (ip), vehicle: saline 102 % of control

CN1CCOP(=O)(c2ccccc2)N1 (configuration not stated)
inactive: [9] 99 % of control | [10] 100 % of control | [11] 89 % of control

CCCCC(CC)CN1CN2CN(CC(CC)CCCC)CC2(C)C1 (configuration not stated)
inactive: dose: 12.5 mg/kg/injection, schedule: Q01DX005 (ip), vehicle: saline with Tween-80 100 % of control | [13] 105 % of control | [14] 104 % of control and 105 % of control

O=C1C2CCC(C2)C1C(O)(C(F)(F)F)C(F)(F)F (configuration not stated)
inactive: [5] 109 % of control | dose: 25.0 mg/kg/injection, schedule: Q04DX003 (ip), vehicle: saline with Tween-80 109 % of control | [6] 100 % of control | dose: 50.0 mg/kg/injection, schedule: Q04DX003 (ip), vehicle: saline with Tween-80 100 % of control | [12] 104 % of control | [1] 90 % of control

CNC(=O)NC(c1ccc(F)cc1)c1cc2c(cc1O)OCO2 (configuration not stated)
inactive: dose: 60.0 mg/kg/injection, schedule: Q01DX005 (ip), vehicle: Klucel (hydroxypropylcellulose) (HPC) 96 % of control | dose: 120.0 mg/kg/injection, schedule: Q01DX005 (ip), vehicle: Klucel (hydroxypropylcellulose) (HPC) 96 % of control | dose: 240.0 mg/kg/injection, schedule: Q01DX005 (ip), vehicle: Klucel (hydroxypropylcellulose) (HPC) 87 % of control

CCOc1ccc(NC(=O)C(C(C)N2CCCCC2)N2CCCCC2)cc1 (configuration not stated)
inactive: dose: 12.5 mg/kg/injection, schedule: Q01DX009 (ip), vehicle: saline 93 % of control | dose: 25.0 mg/kg/injection, schedule: Q01DX009 (ip), vehicle: saline 87 % of control

CCCCC(CC)C(=O)OC(C)C(=O)N(CCCC)CCCC (configuration not stated)
inactive: dose: 25.0 mg/kg/injection, schedule: Q01DX005 (ip), vehicle: Klucel (hydroxypropylcellulose) (HPC) 105 % of control | dose: 50.0 mg/kg/injection, schedule: Q01DX005 (ip), vehicle: Klucel (hydroxypropylcellulose) (HPC) 103 % of control | dose: 100.0 mg/kg/injection, schedule: Q01DX005 (ip), vehicle: Klucel (hydroxypropylcellulose) (HPC) 105 % of control | dose: 200.0 mg/kg/injection, schedule: Q01DX005 (ip), vehicle: Klucel (hydroxypropylcellulose) (HPC) 95 % of control

O=[N+]([O-])c1cc(Cl)c(Cl)cc1NS(=O)(=O)c1ccccc1
inactive: dose: 150.0 mg/kg/injection, schedule: Q01DX009 (ip), vehicle: saline with Tween-80 90 % of control | dose: 150.0 mg/kg/injection, schedule: Q04DX003 (ip), vehicle: saline with Tween-80 100 % of control | dose: 300.0 mg/kg/injection, schedule: Q01DX009 (ip), vehicle: saline with Tween-80 100 % of control | dose: 300.0 mg/kg/injection, schedule: Q04DX003 (ip), vehicle: saline with Tween-80 100 % of control | dose: 600.0 mg/kg/injection, schedule: Q04DX003 (ip), vehicle: saline with Tween-80 95 % of control

NC(N)=NCCCSC(=O)C1CCCCC1
inactive: [14] 105 % of control | [15] 107 % of control

CC(C)N[C@@H]1CCC[C@@H]2c3ccccc3[C@@]21O
inactive: dose: 60.0 mg/kg/injection, schedule: Q01DX005 (ip), vehicle: saline 96 % of control | dose: 120.0 mg/kg/injection, schedule: Q01DX005 (ip), vehicle: saline 95 % of control

O=C(Nc1ccccc1)c1cc(Cl)ccc1O
inactive: [1] 100 % of control | [2] 100 % of control | [3] 100 % of control
